Data from patent US20250066371A1, “FLUOROALKOXYALKYLENE-DIHYDROIMIDAZO[5,1-D]TETRAZINONE COMPOUNDS AND RELATED COMPOUNDS AND THEIR USE IN TREATING MEDICAL CONDITIONS” (priority 2023, published 2025).
pEC50, pIC50: −log10 of the molar value.

Assays:
Assay in all cases: Cell panel nuclear dye assay
Format in all cases: cell-based
639-V = conditions: Homo sapiens, 120 h, Bladder (ureter), 5-day incubation
Protocol: (§1) Cells were grown in RPMI1640, 10% FBS, 2 mM L-alanyl-L-glutamine, 1 mM Na pyruvate, or a special medium. Cells were seeded into 384-well plates and incubated in a humidified atmosphere of 5% CO2 at 37° C. Compound was added the day following cell seeding. At the same time, a time zero untreated cell plate was generated. After a 5-day incubation period, cells were fixed and stained to allow fluorescence imaging of nuclei.
(§2) Compounds were serially diluted in 2-fold steps from the highest test concentration specified, and assayed over 10 concentrations with a maximum assay concentration of 0.1% DMSO. Automated fluorescence microscopy was carried out using a Molecular Devices ImageXpress Micro XL high-content imager, and images were collected with a 4× objective. 16-bit TIFF images were acquired and analyzed with MetaXpress 5.1.0.41 software.
(§3) Cell proliferation was measured by the fluorescence intensity of an incorporated nuclear dye. The output is referred to as the relative cell count, where the measured nuclear intensity is transformed to percent of control (POC) using the following formula: […]
(§4) Cell count IC50 is the test compound concentration at 50% of maximal possible response. EC50 is the test compound concentration at the curve inflection point or half the effective response (parameter C of the fitted curve solution). GI50 is the concentration needed to reduce the observed growth by half (midway between the curve maximum and the time zero value). Activity area is an estimate of the integrated area above the curve. Activity area values range from 0-10, where a value of zero indicates no inhibition of proliferation at all concentrations, and a value of 10 indicates complete inhibition of proliferation at all concentrations. In rare instances, values <0 or >10 may be observed. In these instances, values <0 should be considered as equivalent to 0, whereas values >10 should be considered equivalent to 10.

A427 = conditions: Homo sapiens, A-427, 120 h, Lung (NSCLC), 5-day incubation
Protocol: as §1, §2, §3, §4

BCP-1 = conditions: 120 h, Lymphoma (B-cell), 5-day incubation
Protocol: as §1, §2, §3, §4

BFTC-905 = conditions: Homo sapiens, 120 h, Bladder, 5-day incubation
Protocol: as §1, §2, §3, §4

C32 = conditions: Homo sapiens, 120 h, Melanoma, 5-day incubation
Protocol: as §1, §2, §3, §4

CHP-212 = conditions: Homo sapiens, 120 h, Neuroblastoma, 5-day incubation
Protocol: as §1, §2, §3, §4

CRO-AP2 = conditions: Homo sapiens, 120 h, Lymphoma, 5-day incubation
Protocol: as §1, §2, §3, §4

Colo 320DM = conditions: Homo sapiens, 120 h, Colon, 5-day incubation
Protocol: as §1, §2, §3, §4

DB = conditions: Homo sapiens, 120 h, Lymphoma (B-cell), 5-day incubation
Protocol: as §1, §2, §3, §4

DK-MG = conditions: 120 h, Glioma, 5-day incubation
Protocol: as §1, §2, §3, §4

HOS = conditions: Homo sapiens, 120 h, Osteosarcoma, 5-day incubation
Protocol: as §1, §2, §3, §4

Hs 294T = conditions: Homo sapiens, 120 h, Melanoma, 5-day incubation
Protocol: as §1, §2, §3, §4

KHOS-240S = conditions: 120 h, Osteosarcoma, 5-day incubation
Protocol: as §1, §2, §3, §4

M059J = conditions: Homo sapiens, 120 h, Glioma (glioblastoma), 5-day incubation
Protocol: as §1, §2, §3, §4

MT-3 = conditions: 120 h, Colon, 5-day incubation
Protocol: as §1, §2, §3, §4

MeWo = conditions: Homo sapiens, 120 h, Melanoma, 5-day incubation
Protocol: as §1, §2, §3, §4

NCI-H446 = conditions: Homo sapiens, 120 h, Lung (SCLC), 5-day incubation
Protocol: as §1, §2, §3, §4

NCI-H747 = conditions: Homo sapiens, 120 h, Colon (cecum), 5-day incubation
Protocol: as §1, §2, §3, §4

OE21 = conditions: 120 h, Head & neck (squamous cell carcinoma, esophagus), 5-day incubation
Protocol: as §1, §2, §3, §4

OE33 = conditions: Homo sapiens, 120 h, Head & neck (esophageal carcinoma), 5-day incubation
Protocol: as §1, §2, §3, §4

SCC-9 = conditions: Homo sapiens, 120 h, Head & neck (squamous cell carcinoma, tongue), 5-day incubation
Protocol: as §1, §2, §3, §4

SK-N-AS = conditions: Homo sapiens, 120 h, Neuroblastoma, 5-day incubation
Protocol: as §1, §2, §3, §4

SNB-19 = conditions: Homo sapiens, 120 h, Glioma (astrocytoma), 5-day incubation
Protocol: as §1, §2, §3, §4

SU-DHL-8 = conditions: Homo sapiens, 120 h, Lymphoma (large cell), 5-day incubation
Protocol: as §1, §2, §3, §4

U-87 MG = conditions: Homo sapiens, 120 h, Glioma (glioblastoma), 5-day incubation
Protocol: as §1, §2, §3, §4

WM-266-4 = conditions: Homo sapiens, 120 h, Melanoma, 5-day incubation
Protocol: as §1, §2, §3, §4

## NC(=O)c1ncn2c(=O)n(CCOC(F)(F)F)nnc12 [Compound I-1, 4-Oxo-3-(2-(trifluoromethoxy)ethyl)-3,4-dihydroimidazo[5,1-d][1,2,3,5]tetrazine-8-carboxamide]
639-V
  pEC50: ≥ 4.52
  pIC50: ≥ 4.52
A427
  pEC50: 4.15 to 4.52
  pIC50: 4.15 to 4.52
BCP-1
  pEC50: ≥ 4.52
  pIC50: ≥ 4.52
BFTC-905
  pEC50: 4.15 to 4.52
  pIC50: 4.15 to 4.52
C32
  pEC50: 4.15 to 4.52
  pIC50: 3.82 to 4.15
CHP-212
  pEC50: ≥ 4.52
  pIC50: ≥ 4.52
CRO-AP2
  pEC50: ≥ 4.52
  pIC50: ≥ 4.52
Colo 320DM
  pEC50: 4.15 to 4.52
  pIC50: 4.15 to 4.52
DB
  pEC50: ≥ 4.52
  pIC50: 4.15 to 4.52
DK-MG
  pEC50: ≥ 4.52
  pIC50: 4.15 to 4.52
HOS
  pEC50: 4.15 to 4.52
  pIC50: 4.15 to 4.52
Hs 294T
  pEC50: ≥ 4.52
  pIC50: ≥ 4.52
KHOS-240S
  pEC50: < 3.82
  pIC50: < 3.82
M059J
  pEC50: 4.15 to 4.52
  pIC50: 4.15 to 4.52
MT-3
  pEC50: ≥ 4.52
  pIC50: ≥ 4.52
MeWo
  pEC50: < 3.82
  pIC50: < 3.82
NCI-H446
  pEC50: 4.15 to 4.52
  pIC50: 4.15 to 4.52
NCI-H747
  pEC50: < 3.82
  pIC50: < 3.82
OE21
  pEC50: 4.15 to 4.52
  pIC50: 4.15 to 4.52
OE33
  pEC50: 4.15 to 4.52
  pIC50: 4.15 to 4.52
SCC-9
  pEC50: 3.82 to 4.15
  pIC50: 3.82 to 4.15
SK-N-AS
  pEC50: < 3.82
  pIC50: < 3.82
SNB-19
  pEC50: 4.15 to 4.52
  pIC50: 4.15 to 4.52
SU-DHL-8
  pEC50: ≥ 4.52
  pIC50: ≥ 4.52
U-87 MG
  pEC50: 4.15 to 4.52
  pIC50: 3.82 to 4.15
WM-266-4
  pEC50: 4.15 to 4.52
  pIC50: 4.15 to 4.52
